The record followed here is ChEMBL document CHEMBL1128356, “Antineoplastic agents. 291. Isolation and synthesis of combretastatins A-4, A-5, and A-6(1a)” (1995).

Usually GI50 stands for the concentration at which growth is held to half of that of the control. High values mean less potent growth inhibition, low ones more potent growth inhibition.

In assay [1] the test system is NCI 60 human tumor cell line panel (Homo sapiens). Kind of assay: In vitro inhibitory activity against NCI 60 human tumor cell line panel.
Assay [2] concerns Panel (Carcinoma cell lines). Kind of assay: In vitro antitumor activity against human tumor cancer cell lines. It is filed as functional.

`COc1ccc(/C=C\c2cc(O)c(OC)c(OC)c2)cc1OC` returned a concentration for 50% growth inhibition (GI50) in assay [1] of 1650 nM. `COc1ccc(/C=C/c2cc(O)c(OC)c(OC)c2)cc1OC` had a GI50 in assay [1] of more than 100000 nM. `COc1ccc(/C=C\c2cc(OC)c(OC)c(OC)c2)cc1O` [COMBRETASTATIN A4] came in with a concentration for 50% growth inhibition (GI50) in assay [1] of 3.2 nM. This lies in the single-digit nanomolar range.

In the case of `COc1ccc(/C=C\c2cc(OC)c(OC)c(OC)c2)c(O)c1O` [COMBRETASTATIN A-1], the GI50 in assay [2] amounted to 16.2 nM. That is a double-digit nanomolar value. Turning to `COc1ccc(/C=C\c2cc(OC)c3c(c2)OCO3)cc1O` [Combretastatin A-2], in assay [2], the GI50 was found to be 31.6 nM.
